Patent US12492186B2, “Bicyclic heterocyclic compounds useful as IRAK4 inhibitors” (BRISTOL-MYERS SQUIBB COMPANY, priority 2019, dated 2025)

Experiments:
IRAK4 = IRAK4 (Homo sapiens (Human), UniProt Q9NWZ3); test: IRAK4 Inhibition Assay; format: biochemical; settings: ATP 500 μM; IRAK4 0.6 nM; 60 min room temperature; Caliper LABCHIP 3000
Human whole blood = test: IRAK4 Whole Blood Assay (IL-6 levels after stimulation with TLR2 agonist lipoteichoic acid); format: cell-based; settings: 10 μg/mL lipoteichoic acid, 5 hours
Description: Human whole blood containing the anti-coagulant ACD-A was plated in 384-well plate (25 μL/well) and incubated with compounds for 60 minutes at 37° C. in a 5% CO2 incubator. The blood was stimulated with a TLR2 agonist, 10 μg/mL final concentration of lipoteichoic acid (Invivogen, San Diego, CA) in 25 μL RPMI (Gibco) for 5 hours in a 5% CO2 incubator. At the end of the incubation, plates were centrifuged at 2300 rpm for 5 minutes. Supernatants were harvested and analyzed for IL-6 levels by Flow Cytometry beads assay (BD Biosciences, San Jose, CA).

Chain of IRAK4 (Q9NWZ3 whole entry, species assumed): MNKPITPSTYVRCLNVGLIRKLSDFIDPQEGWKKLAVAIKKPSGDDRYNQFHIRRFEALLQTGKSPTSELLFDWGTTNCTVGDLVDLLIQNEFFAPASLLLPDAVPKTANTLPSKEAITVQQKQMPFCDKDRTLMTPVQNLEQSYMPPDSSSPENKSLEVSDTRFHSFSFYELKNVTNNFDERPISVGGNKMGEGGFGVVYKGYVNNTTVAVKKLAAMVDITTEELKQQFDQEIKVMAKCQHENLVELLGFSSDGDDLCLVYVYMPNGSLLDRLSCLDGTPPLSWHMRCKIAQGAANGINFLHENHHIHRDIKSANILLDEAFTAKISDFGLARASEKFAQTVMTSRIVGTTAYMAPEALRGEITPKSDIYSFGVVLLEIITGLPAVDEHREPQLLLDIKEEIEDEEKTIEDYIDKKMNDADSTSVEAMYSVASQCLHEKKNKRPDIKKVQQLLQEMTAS

Row | Compound | IC50 (IRAK4) [nM] | EC50 (Human whole blood) [nM]
1 | O=C(NCCC1CCS(=O)(=O)CC1)c1cnc2ccc(-c3cn[nH]c3)cc2c1NC1CC1 [Example 120, 4-(cyclopropylamino)-N-(2-(1,1-dioxidotetrahydro-2H-thiopyran-4-yl)ethyl)-6-(1H-pyrazol-4-yl)quinoline-3-carboxamide] | 8.7 | 6040
2 | CC1(Nc2c(C(=O)NC[C@@H](F)C(C)(C)O)cnc3ccc(-c4cn[nH]c4)cc23)CC1 [Example 121, (R)—N-(2-fluoro-3-hydroxy-3-methylbutyl)-4-((1-methylcyclopropyl)amino)-6-(1H-pyrazol-4-yl)quinoline-3-carboxamide] | 2.7 | 686
3 | CC1(Nc2c(C(=O)NCCc3cccnc3)cnc3ccc(-c4cn[nH]c4)cc23)CC1 [Example 122, 4-((1-methylcyclopropyl)amino)-6-(1H-pyrazol-4-yl)-N-(2-(pyridin-3-yl)ethyl)quinoline-3-carboxamide] | 2.5 | 1270
4 | CC1(Nc2c(C(=O)NCC3CCS(=O)(=O)C3)cnc3ccc(-c4cn[nH]c4)cc23)CC1 (stereo not drawn) [Example 123, N-((1,1-dioxidotetrahydrothiophen-3-yl)methyl)-4-((1-methylcyclopropyl)amino)-6-(1H-pyrazol-4-yl)quinoline-3-carboxamide] | 4.1 | 606
5 | CC(=O)N1CCC(c2cc(-c3cnc4ccc(-c5cn[nH]c5)cc4c3NC(C)C)on2)CC1 [Example 127, 1-(4-(5-(4-(isopropylamino)-6-(1H-pyrazol-4-yl)quinolin-3-yl)isoxazol-3-yl)piperidin-1-yl)ethan-1-one] | 6.7 | 1170
6 | CC(C)CCn1cc(-c2cnc3ccc(-c4cn[nH]c4)cc3c2NC(C)C)nn1 [Example 129, 3-(1-isopentyl-1H-1,2,3-triazol-4-yl)-N-isopropyl-6-(1H-pyrazol-4-yl)quinolin-4-amine] | 1.2 | 1430
7 | CC(C)Nc1c(-c2cn(CC3CC3)nn2)cnc2ccc(-c3cn[nH]c3)cc12 [Example 130, 3-(1-(cyclopropylmethyl)-1H-1,2,3-triazol-4-yl)-N-isopropyl-6-(1H-pyrazol-4-yl) quinolin-4-amine] | 6 | 1890
8 | CC(C)Nc1c(-c2cn(CCCO)nn2)cnc2ccc(-c3cn[nH]c3)cc12 [Example 131, 3-(4-(4-(isopropylamino)-6-(1H-pyrazol-4-yl)quinolin-3-yl)-1H-1,2,3-triazol-1-yl)propan-1-ol] | 7.8 | 713
9 | CC(=O)N1CC(n2cc(-c3cnc4ccc(-c5cn[nH]c5)cc4c3NC(C)C)nn2)C1 [Example 132, 1-(3-(4-(4-(isopropylamino)-6-(1H-pyrazol-4-yl)quinolin-3-yl)-1H-1,2,3-triazol-1-yl)azetidin-1-yl)ethan-1-one] | 2.9 | 799
10 | CC(C)Nc1c(-c2cn(C3CCNCC3)nn2)cnc2ccc(-c3cn[nH]c3)cc12 [Example 133, N-isopropyl-3-(1-(piperidin-4-yl)-1H-1,2,3-triazol-4-yl)-6-(1H-pyrazol-4-yl)quinolin-4-amine] | 2.9 | 779
11 | CC(C)Nc1c(-c2cn(C3CN(CC(F)F)C3)nn2)cnc2ccc(-c3cn[nH]c3)cc12 [Example 134, 3-(1-(1-(2,2-difluoroethyl)azetidin-3-yl)-1H-1,2,3-triazol-4-yl)-N-isopropyl-6-(1H-pyrazol-4-yl)quinolin-4-amine] | 6.3 | 981
12 | CC(=O)N1CCC(n2cc(-c3cnc4ccc(-c5cn[nH]c5)cc4c3NC(C)C)nn2)CC1 [Example 135, 1-(4-(4-(4-(isopropylamino)-6-(1H-pyrazol-4-yl)quinolin-3-yl)-1H-1,2,3-triazol-1-yl)piperidin-1-yl)ethan-1-one] | 3.1 | 603
13 | CC(C)Nc1c(-c2cn(C3CCN(C)C3=O)nn2)cnc2ccc(-c3cn[nH]c3)cc12 (stereo not drawn) [Example 136, 3-(4-(4-(isopropylamino)-6-(1H-pyrazol-4-yl)quinolin-3-yl)-1H-1,2,3-triazol-1-yl)-1-methylpyrrolidin-2-one] | 11.4 | 5090
14 | CC(C)Nc1c(C(=O)NCCC(C)(C)O)cnc2ccc(-c3cn[nH]c3)nc12 [Example 138, N-(3-hydroxy-3-methylbutyl)-4-(isopropylamino)-6-(1H-pyrazol-4-yl)-1,5-naphthyridine-3-carboxamide] | 2.7 | 58
15 | CC(C)CCNC(=O)c1cnc2ccc(-c3cn[nH]c3)nc2c1NC(C)C [Example 139, N-isopentyl-4-(isopropylamino)-6-(1H-pyrazol-4-yl)-1,5-naphthyridine-3-carboxamide] | 2.7 | 272
16 | CC(O)CCNC(=O)c1cnc2ccc(-c3cn[nH]c3)nc2c1NC(C)C (stereo not drawn) [Example 140, N-(3-hydroxybutyl)-4-(isopropylamino)-6-(1H-pyrazol-4-yl)-1,5-naphthyridine-3-carboxamide] | 4.8 | 137
17 | CC(C)Nc1c(C(=O)NC[C@@H](F)C(C)(C)O)cnc2ccc(-c3cn[nH]c3)nc12 [Example 141, (R)—N-(2-fluoro-3-hydroxy-3-methylbutyl)-4-(isopropylamino)-6-(1H-pyrazol-4-yl)-1,5-naphthyridine-3-carboxamide] | 1.4 | 40
18 | CC(C)Nc1c(C(=O)NCCC(F)(F)F)cnc2ccc(-c3cn[nH]c3)nc12 [Example 142, 4-(isopropylamino)-6-(1H-pyrazol-4-yl)-N-(3,3,3-trifluoropropyl)-1,5-naphthyridine-3-carboxamide] | 6.4 | 138
19 | CC(C)Nc1c(C(=O)N[C@H]2C[C@H](O)C2)cnc2ccc(-c3cn[nH]c3)nc12 [Example 143, N-((1r,3r)-3-hydroxycyclobutyl)-4-(isopropylamino)-6-(1H-pyrazol-4-yl)-1,5-naphthyridine-3-carboxamide] | 7.2 | 1380
20 | CC(C)Nc1c(C(=O)NCCN2CCOCC2)cnc2ccc(-c3cn[nH]c3)nc12 [Example 144, 4-(isopropylamino)-N-(2-morpholinoethyl)-6-(1H-pyrazol-4-yl)-1,5-naphthyridine-3-carboxamide] | 4 | 285
21 | CC(C)Nc1c(C(=O)NCCC2CC2)cnc2ccc(-c3cncs3)nc12 [Example 148, N-(2-cyclopropylethyl)-4-(isopropylamino)-6-(thiazol-5-yl)-1,5-naphthyridine-3-carboxamide] | 16.4 | 5420
22 | CC(C)Nc1c(C(=O)NCCC2CC2)cnc2ccc(-c3cn[nH]c3)nc12 [Example 149, N-(2-cyclopropylethyl)-4-(isopropylamino)-6-(1H-pyrazol-4-yl)-1,5-naphthyridine-3-carboxamide] | 2.7 | 175
23 | CC(C)Nc1c(C(=O)NCCC(C)(C)N)cnc2ccc(-c3cn[nH]c3)nc12 [Example 150, N-(3-amino-3-methylbutyl)-4-(isopropylamino)-6-(1H-pyrazol-4-yl)-1,5-naphthyridine-3-carboxamide] | 5.4 | 153
24 | CC(=O)N[C@H]1CC[C@H](NC(=O)c2cnc3ccc(-c4cn[nH]c4)nc3c2NC(C)C)CC1 [Example 155, N-((1r,4r)-4-acetamidocyclohexyl)-4-(isopropylamino)-6-(1H-pyrazol-4-yl)-1,5-naphthyridine-3-carboxamide] | 3.3 | 502
